In US12594276B2, “Inhibitors of human immunodeficiency virus replication” (ViiV Healthcare UK (No.5) Limited, priority 2024, dated 2026):

Legend:
[1] = system: recombinant NL4-3 virus (nef section replaced with Renilla luciferase gene) in MT-2 cells; assay: HIV cell culture assay (antiviral activity, luciferase readout); assay type: cell-based; conditions: Renilla, NL43, MT-2 cells infected for 4-5 days with recombinant NL4-3 Renilla luciferase virus
How it was run: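 The reporter virus was produced by transfecting 293T cells with the NL4-3 nef/Renilla luciferase proviral clone. MT-2 cells were infected for 4–5 days with serial compound dilutions present. Luciferase was read with a live-cell substrate, and EC50 came from the exponential median-effect equation.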

[2] = Compound cytotoxicity, XTT-based colorimetric assay; assay type: cell-based; conditions: human; uninfected MT2 cells, day 4, XTT; read-out: CC50
How it was run: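 Uninfected MT2 cells, antiviral-assay protocol without virus; XTT colorimetric readout day 4; CC50 reported.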

CS(=O)(=O)Nc1nn(CCN2CCC(F)(F)CC2)c2c(-n3c([C@H](Cc4cc(F)cc(F)c4)NC(=O)Cn4nc(C(F)F)c5c4C(F)(F)[C@@H]4C[C@H]54)nc4nc(C5CCC(F)(F)CC5)cc(CF)c4c3=O)ccc(Cl)c12 (atropisomer, axis not shown; (P)) [Example 514, N-[(1S)-1-[(3P)-3-{4-chloro-1-[2-(4,4-difluoropiperidin-1-yl)ethyl]-3-methanesulfonamido-1H-indazol-7-yl}-7-(4,4-difluorocyclohexyl)-5-(fluoromethyl)-4-oxo-3H,4H-pyrido[2,3-d]pyrimidin-2-yl]-2-(3,5-difluorophenyl)ethyl]-2-[(2S,4R)-9-(difluoromethyl)-5,5-difluoro-7,8-diazatricyclo[4.3.0.0^2,^4]nona-1(6),8-dien-7-yl]acetamide]
EC50 [1]: 0.014 nM | CC50 at 4 days [2]: > 20 nM

COCCCn1nc(NS(C)(=O)=O)c2c(Cl)ccc(-n3c([C@H](Cc4cc(F)cc(F)c4)NC(=O)Cn4nc(C(F)F)c5c4C(F)(F)[C@@H]4C[C@H]54)nc4nc(C5CCC(F)(F)CC5)cc(NC[C@H]5CCOC5)c4c3=O)c21 (atropisomer, axis not shown; (P)) [Example 567, N-[(1S)-1-[(3P)-3-[4-chloro-3-methanesulfonamido-1-(3-methoxypropyl)-1H-indazol-7-yl]-7-(4,4-difluorocyclohexyl)-4-oxo-5-({[(3R)-oxolan-3-yl]methyl}amino)-3H,4H-pyrido[2,3-d]pyrimidin-2-yl]-2-(3,5-difluorophenyl)ethyl]-2-[(2S,4R)-9-(difluoromethyl)-5,5-difluoro-7,8-diazatricyclo[4.3.0.0^2,^4]nona-1(6),8-dien-7-yl]acetamide]
EC50 [1]: 0.009 nM | CC50 at 4 days [2]: > 20 nM

C[C@@H]1CN(CCn2nc(NS(C)(=O)=O)c3c(Cl)ccc(-n4c([C@H](Cc5cc(F)cc(F)c5)NC(=O)Cn5nc(C(F)F)c6c5C(F)(F)[C@@H]5C[C@H]65)nc5nc(C6CCC(F)(F)CC6)cc(CN6C[C@@H](C)O[C@@H](C)C6)c5c4=O)c32)C[C@H](C)O1 (atropisomer, axis not shown; (P)) [Example 528, N-[(1S)-1-[(3P)-3-(4-chloro-1-{2-[(2R,6S)-2,6-dimethylmorpholin-4-yl]ethyl}-3-methanesulfonamido-1H-indazol-7-yl)-7-(4,4-difluorocyclohexyl)-5-{[(2R,6S)-2,6-dimethylmorpholin-4-yl]methyl}-4-oxo-3H,4H-pyrido[2,3-d]pyrimidin-2-yl]-2-(3,5-difluorophenyl)ethyl]-2-[(2S,4R)-9-(difluoromethyl)-5,5-difluoro-7,8-diazatricyclo[4.3.0.0^2,^4]nona-1(6),8-dien-7-yl]acetamide]
EC50 [1]: 0.006 nM | CC50 at 4 days [2]: > 20 nM

C[C@@H]1CN(Cc2cc(C3CCC(F)(F)CC3)nc3nc([C@H](Cc4cc(F)cc(F)c4)NC(=O)Cn4nc(C(F)F)c5c4C(F)(F)[C@@H]4C[C@H]54)n(-c4ccc(Cl)c5c(NS(C)(=O)=O)nn(CCN6CCC(F)(F)CC6)c45)c(=O)c23)C[C@H](C)O1 (atropisomer, axis not shown; (P)) [Example 525, N-[(1S)-1-[(3P)-3-{4-chloro-1-[2-(4,4-difluoropiperidin-1-yl)ethyl]-3-methanesulfonamido-1H-indazol-7-yl}-7-(4,4-difluorocyclohexyl)-5-{[(2R,6S)-2,6-dimethylmorpholin-4-yl]methyl}-4-oxo-3H,4H-pyrido[2,3-d]pyrimidin-2-yl]-2-(3,5-difluorophenyl)ethyl]-2-[(2S,4R)-9-(difluoromethyl)-5,5-difluoro-7,8-diazatricyclo[4.3.0.0^2,^4]nona-1(6),8-dien-7-yl]acetamide]
EC50 [1]: 0.016 nM | CC50 at 4 days [2]: > 20 nM

Cc1cc(C2CCC(F)(F)CC2)nc2nc([C@H](Cc3cc(F)cc(F)c3)NC(=O)Cn3nc(C4CC4)c4c3C[C@@H]3C[C@H]43)n(-c3ccc(Cl)c4c(NS(C)(=O)=O)nn(CCN5CCO[C@@H](C(C)C)C5)c34)c(=O)c12 (atropisomer, axis not shown; (P)) [Example 456, N-[(1S)-1-[(3P)-3-(4-chloro-3-methanesulfonamido-1-{2-[(2S)-2-(propan-2-yl)morpholin-4-yl]ethyl}-1H-indazol-7-yl)-7-(4,4-difluorocyclohexyl)-5-methyl-4-oxo-3H,4H-pyrido[2,3-d]pyrimidin-2-yl]-2-(3,5-difluorophenyl)ethyl]-2-[(2S,4S)-9-cyclopropyl-7,8-diazatricyclo[4.3.0.0^2,^4]nona-1(6),8-dien-7-yl]acetamide]
EC50 [1]: 0.01 nM | CC50 at 4 days [2]: > 20 nM

Cc1cc(C2CCC(F)(F)CC2)nc2nc([C@H](Cc3cc(F)cc(F)c3)NC(=O)Cn3nc(C(F)F)c4c3C(F)(F)[C@@H]3C[C@H]43)n(-c3ccc(Cl)c4c(NS(C)(=O)=O)nn([C@H](C)CN5CC(C)(C)OC(C)(C)C5)c34)c(=O)c12 (atropisomer, axis not shown; (P)) [Example 733, N-[(1S)-1-[(3P)-3-{4-chloro-3-methanesulfonamido-1-[(2R)-1-(2,2,6,6-tetramethylmorpholin-4-yl)propan-2-yl]-1H-indazol-7-yl}-7-(4,4-difluorocyclohexyl)-5-methyl-4-oxo-3H,4H-pyrido[2,3-d]pyrimidin-2-yl]-2-(3,5-difluorophenyl)ethyl]-2-[(2S,4R)-9-(difluoromethyl)-5,5-difluoro-7,8-diazatricyclo[4.3.0.0^2,^4]nona-1(6),8-dien-7-yl]acetamide]
EC50 [1]: 0.037 nM | CC50 at 4 days [2]: > 20 nM

Cc1cc(C2CCC(F)(F)CC2)nc2nc([C@H](Cc3cc(F)cc(F)c3)NC(=O)Cn3nc(C4CC4)c4c3C[C@@H]3C[C@H]43)n(-c3ccc(Cl)c4c(NS(C)(=O)=O)nn(CCN5CCCC(F)(F)CC5)c34)c(=O)c12 (atropisomer, axis not shown; (P)) [Example 3, N-[(1S)-1-[(3P)-3-{4-chloro-1-[2-(4,4-difluoroazepan-1-yl)ethyl]-3-methanesulfonamido-1H-indazol-7-yl}-7-(4,4-difluorocyclohexyl)-5-methyl-4-oxo-3H,4H-pyrido[2,3-d]pyrimidin-2-yl]-2-(3,5-difluorophenyl)ethyl]-2-[(2S,4S)-9-cyclopropyl-7,8-diazatricyclo[4.3.0.0^2,^4]nona-1(6),8-dien-7-yl]acetamide]
EC50 [1]: 0.009 nM | CC50 at 4 days [2]: > 50 nM

CCOCCn1nc(NS(C)(=O)=O)c2c(Cl)ccc(-n3c([C@H](Cc4cc(F)cc(F)c4)NC(=O)Cn4nc(C(F)F)c5c4C(F)(F)[C@@H]4C[C@H]54)nc4nc(C5CCC(F)(F)CC5)cc(C(F)F)c4c3=O)c21 (atropisomer, axis not shown; (P)) [Example 150, N-[(1S)-1-[(3P)-3-[4-chloro-1-(2-ethoxyethyl)-3-methanesulfonamido-1H-indazol-7-yl]-7-(4,4-difluorocyclohexyl)-5-(difluoromethyl)-4-oxo-3H,4H-pyrido[2,3-d]pyrimidin-2-yl]-2-(3,5-difluorophenyl)ethyl]-2-[(2S,4R)-9-(difluoromethyl)-5,5-difluoro-7,8-diazatricyclo[4.3.0.0^2,^4]nona-1(6),8-dien-7-yl]acetamide]
EC50 [1]: 0.017 nM | CC50 at 4 days [2]: > 50 nM
